Measurements reported in PubChem BioAssay AID1963843 (Molecular Pharmacology Branch, DTP, NCI, 2024).
“And” between values parts separate entries of the source, which are not always exact repeats. Equal values may be shown once.

System: 616215-338-R-J1-PDC complex spheroid viability
Assay: Anticancer human tumor 616215-338-R-J1-PDC patient-derived colon adenocarcinoma cell line growth inhibition [POLQ]
Settings: for viability, T/C: stronger effect = lower value
Method: Multicellular complex tumor spheroid response to Polymerase (POL) inhibitors (novobiocin, ART-558, RP6685) in combination with a variety of drugs and investigational agents in selected tumor cell lines
The POL inhibitors (novobiocin, ART-558, and RP6685) were evaluated both individually and in combination with standard of care and investigational anticancer small molecules within a complex spheroid model of solid tumors. . Complex spheroids include a stromal component modeled by human endothelial cells (HUVEC) and fibroblasts modeled by human mesenchymal stem cells (MSCs). The concentration ranges selected for each drug and investigational agent were based upon clinically achievable concentrations if the clinical Cmax of the agent was known.
Compounds. The drugs and investigational agents: novobiocin (NSC847541), ART-558 (NSC835418), RP-6685 (NSC848927), peposertib (NSC802822), ceralasertib (NSC780249), elimusertib (NSC800525), camonsertib (NSC841442), AZD-1390 (NSC803789), olaparib (NSC753686), talazoparib (NSC767125), rucaparib (NSC756644), sotorasib (NSC818433), MRTX-1133 (NSC836407), SN-38 (NSC673596), topotecan (NSC609699), epotoside (NSC141540), doxorubicin (NSC123127), gemcitabine (NSC613327), 5-fluorouracil (NSC19893), paclitaxel (NSC125973), vemurafenib (NSC761431), MSA-2 (NSC828583), SN-011 (NSC837082), adavosertib (NSC754352), prexasertib (NSC758257), carboplatin (NSC241240) and oxaliplatin (NSC266046), were obtained from the National Cancer Institute (NCI) Developmental Therapeutics Program Chemical Repository (21). The FDA-approved anticancer drug set is available from the Developmental Therapeutics Program at https://dtp.cancer.gov/organization/dscb/obtaining/. […] The stock solutions were prepared in dimethyl sulfoxide (DMSO, Sigma-Aldrich, St. Louis, MO, cat. D2650), except for the platinum compounds which were prepared in saline (Quality Biological, Gaithersburg, MD, cat. 114-055-101), at 800-fold the tested concentration and stored at -70 degrees C prior to their use. All drugs and investigational agents were tested over a range starting from a high concentration at or near the clinical Cmax and decreasing in half-log increments. If the clinical Cmax for an agent had not been determined, the highest concentration tested was 10 microM, except for SN-38, which was tested at a high concentration of 1 microM.
Cell Culture. All cells were maintained in an incubator at 37 degrees C and 5% CO2 with 95% humidity. The PDC lines were cultured according to standard operating procedures established by the NCI PDMR (https://pdmr.cancer.gov). Table 3 of the manuscript, lists the cell lines along with the number of the three cell types plated to form the mct-spheroids and media for tumor cell growth. After thawing, all PDC lines, except 997537-175-T-J1-PDC and 415267-285-R-J2-PDC, were cultured in Matrigel-coated flasks prepared with a working solution of 1X Ham's F-12 nutrient mix, without supplementation (Thermo Fisher Scientific, cat. 11765054), 100 U/mL penicillin-streptomycin (Thermo Fisher Scientific, cat. 15140122), and 2.5% Matrigel (Corning Inc., Corning, NY, cat. 354248) for the first three passages. The two PDC lines 997537-175-T-J1-PDC and 415267-285-R-J2-PDC were cultured on uncoated flasks. The 857933-349-R-J2-PDC line was cultured in 6C/Colon 1B media containing advanced DMEM/F-12 (Thermo Fisher Scientific, cat. 12634028), 10 mM HEPES (Thermo Fisher Scientific, cat. 15630080), 1X GlutaMAX supplement (Thermo Fisher Scientific, cat. 35050061), 0.1 mg/mL primocin (InvivoGen, San Diego, CA, cat. ant-pm-2), 10% defined fetal bovine serum, heat inactivated (HyClone Laboratories Inc., Logan, UT, cat. SH30070.03HI), 50% L-WRN conditioned media (ATCC, cat. CRL-3276), 1.25 mM N-Acetyl-L-cysteine (Sigma-Aldrich, cat. A9165), 10 mM nicotinamide (Sigma-Aldrich, cat. N0636), 1X B-27 supplement (Thermo Fisher Scientific, cat. 17504044), 1X N-2 supplement (Thermo Fisher Scientific, cat. […]

[1] = curve of first compound, second compound 0.0316 µM
[2] = curve of first compound, second compound 0.1 µM
[3] = curve of first compound, second compound 0.316 µM
[4] = curve of first compound, second compound 1 µM
[5] = curve of first compound, second compound 3.16 µM
[6] = curve of first compound, second compound 10 µM
[7] = second compound 0.0316 µM, first compound 0.0316 µM
[8] = second compound 0.0316 µM, first compound 0.1 µM
[9] = second compound 0.0316 µM, first compound 0.316 µM
[10] = second compound 0.0316 µM, first compound 1 µM
[11] = second compound 0.0316 µM, first compound 3.16 µM
[12] = second compound 0.0316 µM, first compound 10 µM
[13] = second compound 0.1 µM, first compound 0.0316 µM
[14] = second compound 0.1 µM, first compound 0.1 µM
[15] = second compound 0.1 µM, first compound 0.316 µM
[16] = second compound 0.1 µM, first compound 1 µM
[17] = second compound 0.1 µM, first compound 3.16 µM
[18] = second compound 0.1 µM, first compound 10 µM
[19] = second compound 0.316 µM, first compound 0.0316 µM
[20] = second compound 0.316 µM, first compound 0.1 µM
[21] = second compound 0.316 µM, first compound 0.316 µM
[22] = second compound 0.316 µM, first compound 1 µM
[23] = second compound 0.316 µM, first compound 3.16 µM
[24] = second compound 0.316 µM, first compound 10 µM
[25] = second compound 1 µM, first compound 0.0316 µM
[26] = second compound 1 µM, first compound 0.1 µM
[27] = second compound 1 µM, first compound 0.316 µM
[28] = second compound 1 µM, first compound 1 µM
[29] = second compound 1 µM, first compound 3.16 µM
[30] = second compound 1 µM, first compound 10 µM
[31] = second compound 3.16 µM, first compound 0.0316 µM
[32] = second compound 3.16 µM, first compound 0.1 µM
[33] = second compound 3.16 µM, first compound 0.316 µM
[34] = second compound 3.16 µM, first compound 1 µM
[35] = second compound 3.16 µM, first compound 3.16 µM
[36] = second compound 3.16 µM, first compound 10 µM
[37] = second compound 10 µM, first compound 0.0316 µM
[38] = second compound 10 µM, first compound 0.1 µM
[39] = second compound 10 µM, first compound 0.316 µM
[40] = second compound 10 µM, first compound 1 µM
[41] = second compound 10 µM, first compound 3.16 µM
[42] = second compound 10 µM, first compound 10 µM
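Note: spheroids exposed to compounds for one week before readout.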
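Throughout, for viability, T/C: percent viability relative to DMSO vehicle wells taken as 100%.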

## CNCc1ccc(-c2[nH]c3cc(F)cc4c3c2CCNC4=O)cc1 + Nc1ccc(C#CCN(C(=O)Cc2ncc(C(F)(F)F)cc2C(F)(F)F)c2ccc(F)cc2)nn1
[1]
  IC50: 7.9 µM
[2]
  IC50: 7.18 µM
[3]
  IC50: 7.71 µM
[4]
  IC50: 7.52 µM
[5]
  IC50: 7.03 µM
[6]
  IC50: 6.23 µM
[7]
  viability, T/C: 101%
[8]
  viability, T/C: 107%
[9]
  viability, T/C: 97%
[10]
  viability, T/C: 104%
[11]
  viability, T/C: 104%
[12]
  viability, T/C: 36.2%
[13]
  viability, T/C: 104%
[14]
  viability, T/C: 111%
[15]
  viability, T/C: 90.3%
[16]
  viability, T/C: 119%
[17]
  viability, T/C: 122%
[18]
  viability, T/C: 25.8%
[19]
  viability, T/C: 102%
[20]
  viability, T/C: 112%
[21]
  viability, T/C: 104%
[22]
  viability, T/C: 95.7%
[23]
  viability, T/C: 119%
[24]
  viability, T/C: 33.4%
[25]
  viability, T/C: 107%
[26]
  viability, T/C: 94.8%
[27]
  viability, T/C: 95.8%
[28]
  viability, T/C: 105%
[29]
  viability, T/C: 106%
[30]
  viability, T/C: 33%
[31]
  viability, T/C: 96.8%
[32]
  viability, T/C: 93.3%
[33]
  viability, T/C: 93.8%
[34]
  viability, T/C: 102%
[35]
  viability, T/C: 105%
[36]
  viability, T/C: 28.6%
[37]
  viability, T/C: 93%
[38]
  viability, T/C: 78.5%
[39]
  viability, T/C: 102%
[40]
  viability, T/C: 103%
[41]
  viability, T/C: 103%
[42]
  viability, T/C: 17.9%

## C=CC(=O)N1CCN(c2nc(=O)n(-c3c(C)ccnc3C(C)C)c3nc(-c4c(O)cccc4F)c(F)cc23)C(C)C1 (stereo not drawn)
Compound 0.0316 µM
  viability, T/C: 104% and 100% and 91.5%
Compound 0.1 µM
  viability, T/C: 94.8% and 103% and 100%
Compound 0.316 µM
  viability, T/C: 97.3% and 99.3% and 98.2%
Compound 1 µM
  viability, T/C: 97.3% and 97.5% and 99.1%
Compound 3.16 µM
  viability, T/C: 103% and 90.9% and 104%
Compound 10 µM
  viability, T/C: 87.7% and 66.7% and 91.4%
Curve of compound
  IC50: > 10 µM

## CC1COCCN1c1cc(C2(S(C)(=N)=O)CC2)nc(-c2ccnc3[nH]ccc23)n1 (stereo not drawn)
Compound 0.0316 µM
  viability, T/C: 99.9% and 97.9% and 100%
Compound 0.1 µM
  viability, T/C: 107% and 90.8% and 112%
Compound 0.316 µM
  viability, T/C: 95.8% and 93.9% and 108%
Compound 1 µM
  viability, T/C: 99.2% and 99.4% and 95.3%
Compound 3.16 µM
  viability, T/C: 99% and 74.6% and 107%
Compound 10 µM
  viability, T/C: 71.5% and 39.9% and 74.1%
Curve of compound
  IC50: > 10 µM and 7.18 µM

## COc1cc(C2c3cc4c(cc3C(OC3OC5COC(C)OC5C(O)C3O)C3COC(=O)C23)OCO4)cc(OC)c1O (stereo not drawn) + Cc1cccc(N(C)C(=O)C2C(O)CCN2c2nc(C)cc(C(F)(F)F)c2C#N)c1
[1]
  IC50: > 10 µM
[2]
  IC50: > 10 µM
[3]
  IC50: 9.66 µM
[4]
  IC50: 9.43 µM
[5]
  IC50: > 10 µM
[6]
  IC50: 9.51 µM
[7]
  viability, T/C: 95.8%
[8]
  viability, T/C: 102%
[9]
  viability, T/C: 85.3%
[10]
  viability, T/C: 94%
[11]
  viability, T/C: 70.9%
[12]
  viability, T/C: 61.5%
[13]
  viability, T/C: 94.8%
[14]
  viability, T/C: 95.5%
[15]
  viability, T/C: 94.1%
[16]
  viability, T/C: 77.9%
[17]
  viability, T/C: 80.6%
[18]
  viability, T/C: 50.8%
[19]
  viability, T/C: 95.4%
[20]
  viability, T/C: 101%
[21]
  viability, T/C: 88.6%
[22]
  viability, T/C: 85.1%
[23]
  viability, T/C: 73.4%
[24]
  viability, T/C: 48.8%
[25]
  viability, T/C: 94.4%
[26]
  viability, T/C: 96.5%
[27]
  viability, T/C: 85.4%
[28]
  viability, T/C: 81.4%
[29]
  viability, T/C: 76.7%
[30]
  viability, T/C: 47.2%
[31]
  viability, T/C: 105%
[32]
  viability, T/C: 106%
[33]
  viability, T/C: 80.5%
[34]
  viability, T/C: 81.7%
[35]
  viability, T/C: 78%
[36]
  viability, T/C: 48.9%
[37]
  viability, T/C: 107%
[38]
  viability, T/C: 102%
[39]
  viability, T/C: 68.4%
[40]
  viability, T/C: 93.3%
[41]
  viability, T/C: 67.4%
[42]
  viability, T/C: 44.7%
